Measurements as given in patent EP2970215B1, “PYRROLIDINE DERIVATIVES, PHARMACEUTICAL COMPOSITIONS CONTAINING THEM, AND THEIR USE IN THERAPY” (AbbVie Deutschland GmbH & Co. KG, priority 2013, dated 2014).

Target: T1, human GlyT1c transporter (Homo sapiens, UniProt P48067)
T1 construct: expressed in transfected cells; host or cells: CHO cells (recombinant; line hGlyT1c_5_CHO is named for the uptake assay)
T1 sequence (P48067 1-706): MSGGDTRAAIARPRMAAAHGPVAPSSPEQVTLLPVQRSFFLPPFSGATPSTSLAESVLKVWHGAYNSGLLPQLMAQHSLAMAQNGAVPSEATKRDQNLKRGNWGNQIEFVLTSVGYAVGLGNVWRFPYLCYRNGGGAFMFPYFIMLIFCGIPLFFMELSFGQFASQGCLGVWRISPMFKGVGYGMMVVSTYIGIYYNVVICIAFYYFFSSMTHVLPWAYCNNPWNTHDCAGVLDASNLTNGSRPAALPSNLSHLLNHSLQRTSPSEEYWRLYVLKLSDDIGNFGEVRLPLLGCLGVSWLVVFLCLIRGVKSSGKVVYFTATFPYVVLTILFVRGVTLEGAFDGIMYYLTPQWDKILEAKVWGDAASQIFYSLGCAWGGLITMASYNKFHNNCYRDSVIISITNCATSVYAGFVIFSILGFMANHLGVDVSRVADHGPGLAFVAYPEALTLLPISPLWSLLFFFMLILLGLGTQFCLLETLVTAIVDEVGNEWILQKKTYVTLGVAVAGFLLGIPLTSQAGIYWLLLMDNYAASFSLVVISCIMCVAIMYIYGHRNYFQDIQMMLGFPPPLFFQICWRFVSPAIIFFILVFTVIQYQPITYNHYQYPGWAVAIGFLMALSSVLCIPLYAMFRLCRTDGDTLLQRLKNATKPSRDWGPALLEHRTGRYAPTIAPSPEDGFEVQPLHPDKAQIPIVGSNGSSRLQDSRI
Experiment: Radioligand binding assay using recombinant CHO cell membranes expressing human GlyT1
Settings: radioligand binding to human GlyT1c transporter-expressing membranes
From the text: 2. Radioligand binding assays using recombinant CHO cell membranes expressing human GlyT1: […]

Q: `Cn1cnc(S(=O)(=O)N2C[C@@H](Nc3ccc(Cl)cc3)[C@H](c3ccc(F)cc3)C2)c1` (relative stereo) [Example 95, trans-N-(4-chlorophenyl)-4-(4-fluorophenyl)-1-[(1-methyl-1H-imidazol-4-yl)sulfonyl]pyrrolidin-3 - amine] was tested. Which Ki did it give?
A: ≤ 1 µM

Q: For `Cc1csc(CN[C@H]2CN(S(=O)(=O)c3cn(C)cn3)C[C@@H]2c2ccccc2)n1` [Example 454, (3R,4S)-1-[(1-methyl-1H-imidazol-4-yl)sulfonyl]-N-[(4-methyl-1,3-thiazol-2-yl)methyl]-4-phenylpyrrolidin-3-amine], which Ki is on record?
A: ≤ 10 µM

Q: How did the Ki turn out when `Cn1cnc(S(=O)(=O)N2C[C@H](Nc3cc(Cl)ncn3)[C@@H](c3ccccc3)C2)c1` [Example 606, 6-chloro-N-{(3R,4S)-1-[(1-methyl-1H-imidazol-4-yl)sulfonyl]-4-phenylpyrrolidin-3-yl}pyrimidin-4-amine] was run?
A: ≤ 0.1 µM

Q: With `Cn1cnc(S(=O)(=O)N2C[C@H](NCc3c(Cl)cncc3Cl)[C@@H](c3ccccc3)C2)c1` [Example 432, (3R,4S)-N-[(3,5-dichloropyridin-4-yl)methyl]-1-[(1-methyl-1H-imidazol-4-yl)sulfonyl]-4-phenylpyrrolidin-3-amine] as the molecule, how does the Ki read?
A: ≤ 10 µM

Q: For `Cn1cnc(S(=O)(=O)N2C[C@H](Nc3cc(OCC(F)(F)F)c(Cl)cn3)[C@@H](c3ccc(F)cc3)C2)c1` [Example 806, 5-chloro-N-{(3R,4S)-4-(4-fluorophenyl)-1-[(1-methyl-1H-imidazol-4-yl)sulfonyl]pyrrolidin-3-yl}-4-(2,2,2-trifluoroethoxy)pyridin-2-amine], which Ki is on record?
A: ≤ 0.01 µM

Q: Which Ki does the source give for `COc1ccc(S(=O)(=O)N2C[C@@H](NC(=O)c3cccc(C(F)(F)F)c3Cl)[C@H](c3ccccc3)C2)cc1` (relative stereo) [Example 136, 2-chloro-N-{trans-1-[(4-methoxyphenyl)sulfonyl]-4-phenylpyrrolidin-3-yl}-3-(trifluoromethyl)benzamide] here?
A: ≤ 10 µM

Q: With `Cn1cnc(S(=O)(=O)N2C[C@@H](Nc3cc(Cl)ncn3)[C@H](c3ncccc3F)C2)c1` (relative stereo) [Example 772, 6-chloro-N-{trans-4-(3-fluoropyridin-2-yl)-1-[(1-methyl-1H-imidazol-4-yl)sulfonyl]pyrrolidin-3-yl}pyrimidin-4-amine] as the molecule, how does the Ki read?
A: ≤ 10 µM

Q: Which Ki does the source give for `Cn1cnc(S(=O)(=O)N2C[C@@H](COc3cccc(F)c3)[C@H](c3ccc(F)cc3)C2)c1` (relative stereo) [Example 251, 4-{[trans-3-[(3-fluorophenoxy)methyl]-4-(4-fluorophenyl)pyrrolidin-1-yl]sulfonyl}-1-methyl-1H-imidazole] here?
A: ≤ 0.1 µM

Q: `Cn1cnc(S(=O)(=O)N2C[C@H](NCc3cc4cc(F)ccc4s3)[C@@H](c3ccccc3)C2)c1` [Example 568, (3R,4S)-N-[(5-fluoro-1-benzothiophen-2-yl)methyl]-1-[(1-methyl-1H-imidazol-4-yl)sulfonyl]-4-phenylpyrrolidin-3-amine] was tested. Which Ki did it give?
A: ≤ 0.1 µM

Q: How did the Ki turn out when `Cn1cnc(S(=O)(=O)N2C[C@H](NCc3ccc(C(F)(F)F)o3)[C@@H](c3ccc(F)cc3)C2)c1` [Example 391, (3R,4S)-4-(4-fluorophenyl)-1-[(1-methyl-1H-imidazol-4-yl)sulfonyl]-N-{[5-(trifluoromethyl)furan-2-yl]methyl}pyrrolidin-3-amine] was run?
A: ≤ 0.1 µM

Q: For `Cn1cnc(S(=O)(=O)N2C[C@@H](Nc3ccc(C#N)c(F)c3)[C@H](c3ccc(F)cc3)C2)c1` (relative stereo) [Example 342, 2-fluoro-4-({trans-4-(4-fluorophenyl)-1-[(1-methyl-1H-imidazol-4-yl)sulfonyl]pyrrolidin-3-yl}amino)benzonitrile], which Ki is on record?
A: ≤ 10 µM

Q: With `Cn1cnc(S(=O)(=O)N2C[C@@H](Nc3cccnc3)[C@H](c3ccc(F)cc3)C2)c1` (relative stereo) [Example 179, N-{trans-4-(4-fluorophenyl)-1-[(1-methyl-1H-imidazol-4-yl)sulfonyl]pyrrolidin-3-yl}pyridin-3-amine] as the molecule, how does the Ki read?
A: ≤ 10 µM

Q: `Cn1cnc(S(=O)(=O)N2CC(Cc3ccccc3Br)C(c3ccccc3Br)C2)c1` (stereo not shown) [Example 205, 4-{[3-(2-bromobenzyl)-4-(2-bromophenyl)pyrrolidin-1-yl]sulfonyl}-1-methyl-1H-imidazole] was tested. Which Ki did it give?
A: ≤ 1 µM

Q: `CCOCCN[C@H]1CN(S(=O)(=O)c2cn(C)cn2)C[C@@H]1c1ccccc1` [Example 608, (3R,4S)-N-(2-ethoxyethyl)-1-[(1-methyl-1H-imidazol-4-yl)sulfonyl]-4-phenylpyrrolidin-3-amine] was tested. Which Ki did it give?
A: ≤ 10 µM

Q: For `CCCNC(=O)CO[C@@H]1CN(S(=O)(=O)c2cn(C)cn2)C[C@H]1c1ccc(F)cc1` (relative stereo) [Example 689, 2-({Trans-4-(4-fluorophenyl)-1-[(1-methyl-1H-imidazol-4-yl)sulfonyl]pyrrolidin-3-yl}oxy)-N-propylacetamide], which Ki is on record?
A: ≤ 1 µM

Q: For `Cn1cnc(S(=O)(=O)N2C[C@@H](C(=O)Nc3cc(Cl)cc(Cl)c3)[C@H](c3ccc(F)cc3)C2)c1` (relative stereo) [Example 244, Trans-N-(3,5-dichlorophenyl)-4-(4-fluorophenyl)-1-[(1-methyl-1H-imidazol-4-yl)sulfonyl]pyrrolidine-3-carboxamide], which Ki is on record?
A: ≤ 1 µM

Q: How did the Ki turn out when `Cn1cnc(S(=O)(=O)N2C[C@@H](Nc3cccc(Cl)c3)[C@H](c3ccccn3)C2)c1` (relative stereo) [Example 345, Trans-N-(3-chlorophenyl)-1-[(1-methyl-1H-imidazol-4-yl)sulfonyl]-4-(pyridin-2-yl)pyrrolidin-3-amine] was run?
A: ≤ 0.1 µM

Q: How did the Ki turn out when `Cn1cnc(S(=O)(=O)N2C[C@@H](Nc3ccc(Cl)c(F)c3)[C@H](c3ccc(F)cc3)C2)c1` (relative stereo) [Example 162, trans-N-(4-chloro-3-fluorophenyl)-4-(4-fluorophenyl)-1-[(1-methyl-1H-imidazol-4-yl)sulfonyl]pyrrolidin-3-amine] was run?
A: ≤ 1 µM

Q: With `Cn1cnc(S(=O)(=O)N2C[C@@H](Nc3ccc(C(F)(F)F)c(Cl)c3)[C@H](c3ccc(F)cc3)C2)c1` (relative stereo) [Example 173, trans-N-[3-chloro-4-(trifluoromethyl)phenyl]-4-(4-fluorophenyl)-1-[(1-methyl-1H-imidazol-4-yl)sulfonyl]pyrrolidin-3-amine] as the molecule, how does the Ki read?
A: ≤ 1 µM

Q: Which Ki does the source give for `CC(=O)CCCC(=O)N[C@H]1CN(S(=O)(=O)c2cn(C)cn2)C[C@@H]1c1ccc(F)cc1` [Example 695, N-{(3R,4S)-4-(4-fluorophenyl)-1-[(1-methyl-1H-imidazol-4-yl)sulfonyl]pyrrolidin-3-yl}-5-oxohexanamide] here?
A: ≤ 10 µM

Q: `CCS(=O)(=O)N1C[C@@H](NC(=O)c2cc(Cl)cc(Cl)c2)[C@H](c2ccccc2)C1` (relative stereo) [Example 123, 3,5-dichloro-N-[trans-1-(ethylsulfonyl)-4-phenylpyrrolidin-3-yl]benzamide] was tested. Which Ki did it give?
A: ≤ 10 µM

Q: How did the Ki turn out when `Cn1cnc(S(=O)(=O)N2C[C@@H](Nc3ccncc3)[C@H](c3cccc(F)c3)C2)c1` (relative stereo) [Example 191, N-{trans-4-(3-fluorophenyl)-1-[(1-methyl-1H-imidazol-4-yl)sulfonyl]pyrrolidin-3-yl}pyridin-4-amine] was run?
A: ≤ 10 µM

Q: For `Cc1cccc(N[C@@H]2CN(S(=O)(=O)c3cn(C)cn3)C[C@H]2C2CCCOC2)c1` (relative stereo) [Example 781, trans-1-[(1-methyl-1H-imidazol-4-yl)sulfonyl]-N-(3-methylphenyl)-4-(tetrahydro-2H-pyran-3-yl)pyrrolidin-3-amine], which Ki is on record?
A: ≤ 10 µM

Q: How did the Ki turn out when `Cn1cnc(S(=O)(=O)N2C[C@H](NCc3nc4ccccc4s3)[C@@H](c3ccccc3)C2)c1` [Example 453, (3R,4S)-N-(1,3-benzothiazol-2-ylmethyl)-1-[(1-methyl-1H-imidazol-4-yl)sulfonyl]-4-phenylpyrrolidin-3-amine] was run?
A: ≤ 1 µM

Q: `Cn1cnc(S(=O)(=O)N2C[C@@H](Nc3ccc(F)c(Cl)c3)[C@H](c3ccccc3)C2)c1` (relative stereo) [Example 215, trans-N-(3-chloro-4-fluorophenyl)-1-[(1-methyl-1H-imidazol-4-yl)sulfonyl]-4-phenylpyrrolidin-3-amine] was tested. Which Ki did it give?
A: ≤ 0.1 µM

Q: Which Ki does the source give for `O=C(N[C@@H]1CN(S(=O)(=O)CC2CC2)C[C@H]1c1ccccc1)c1ccc(C(F)(F)F)cc1` (relative stereo) [Example 128, N-{trans-1-[(cyclopropylmethyl)sulfonyl]-4-phenylpyrrolidin-3-yl}-4-(trifluoromethyl)benzamide] here?
A: ≤ 10 µM

Q: `Cc1c(S(=O)(=O)N2CC(Nc3ccc(F)c(F)c3)C(c3ccccc3)C2)cnn1C` (stereo not shown) [Example 483, N-(3,4-difluorophenyl)-1-[(1,5-dimethyl-1H-pyrazol-4-yl)sulfonyl]-4-phenylpyrrolidin-3-amine] was tested. Which Ki did it give?
A: ≤ 10 µM

Same assay, conditions: radioligand binding, recombinant CHO cell membranes expressing human GlyT1c

Q: How did the Ki turn out when `Cn1cnc(S(=O)(=O)N2C[C@@H](Nc3ccc(F)c(C(F)(F)F)c3)[C@H](C3CCCO3)C2)c1` (relative stereo) [Example 843, Trans-N-[4-fluoro-3-(trifluoromethyl)phenyl]-1-[(1-methyl-1H-imidazol-4-yl)sulfonyl]-4-(tetrahydrofuran-2-yl)pyrrolidin-3-amine] was run?
A: ≤ 0.1 µM
